# Assay results taken from patent US12492195B2, “Preparation method for and crystal form of 3-aryloxy-3-five-membered heteroaryl-propylamine compound” (Zhangzhou Pien Tze Huang Pharmaceutical Co., Ltd., priority 2020, dated 2025).
# Experiments:
# TRPM8 = target: T1, TRPM8 (Homo sapiens, UniProt Q7Z2W7); assay: Manual patch clamp detection on TRPM8 channel; assay type: cell-based; conditions: 20.00 μM, positive compound
# T1 construct: expressed in transfected cells
# Description: (§1) TRPM8 cells were cultured in a cell culture dish with a diameter of 35 mm, placed in an incubator in 5% CO2 at 37° C., and passaged at a ratio of 1:5 every 48 hours. The formula of medium was 90% DMEM (Invitrogen), 10% fetal bovine serum (Gibco), 2 mM L-glutamine, 50 μg/mL Hygromycin B (Invitrogen) and 5 μg/mL Blasticidine HCl (Invitrogen). Before electrophysiological patch clamp experiment, the cell culture medium was replaced with medium containing 1 μg/mL doxycycline for at least 16 hours to induce TRPM8 expression.
# (§2) On the day of the experiment, the cell culture medium was aspirated, the cell were rinsed once with extracellular fluid, and then 0.25% Trypsin-EDTA (Invitrogen) solution was added, and digested at room temperature for 1-2 minutes. The digestion solution was aspirated, the cell were resuspended with extracellular fluid, and transferred to the experimental dish for electrophysiological recording for further experiment.
# Preparation of menthol: 100.00 mM of DMSO stock solution of menthol was added to the extracellular solution, diluting 1000-fold to 100.00 μM of menthol solution.
# Preparation of AMTB: 5 μL of DMSO stock solution (20.00 mM) of AMTB was added to 4995 μL of menthol solution (100.00 uM), diluting 1000-fold to obtain the final concentration of 20.00 μM AMTB to be tested.
# Preparation of IC-1: 20.00 mM or 10.00 mM of stock solution of IC-1 was taken and added to the agonist solution of the corresponding channel, diluting 1000 or 2000-fold to the final concentration of 10.00 μM of […] solution to be tested.
# (§3) HEK293 cells stably expressing TRP channels, the corresponding agonist-induced channel current was recorded by whole-cell patch clamp technique at room temperature. […] Clamp voltages and data recording were controlled and recorded by a computer using pClamp 11 software with the sampling frequency of 10 kHz and the filtering frequency of 2 kHz. […] After the current was evoked for more than 40 s and no attenuation was determined, the dosing process started. […]
# TRPV4 = target: T2, TRPV4 (Homo sapiens, UniProt Q9HBA0); assay: Manual patch clamp detection on TRPV4 channel; assay type: cell-based; conditions: 40.00 μM, positive compound
# T2 construct: expressed in transfected cells
# T2 sequence (Q9HBA0 whole entry, species assumed): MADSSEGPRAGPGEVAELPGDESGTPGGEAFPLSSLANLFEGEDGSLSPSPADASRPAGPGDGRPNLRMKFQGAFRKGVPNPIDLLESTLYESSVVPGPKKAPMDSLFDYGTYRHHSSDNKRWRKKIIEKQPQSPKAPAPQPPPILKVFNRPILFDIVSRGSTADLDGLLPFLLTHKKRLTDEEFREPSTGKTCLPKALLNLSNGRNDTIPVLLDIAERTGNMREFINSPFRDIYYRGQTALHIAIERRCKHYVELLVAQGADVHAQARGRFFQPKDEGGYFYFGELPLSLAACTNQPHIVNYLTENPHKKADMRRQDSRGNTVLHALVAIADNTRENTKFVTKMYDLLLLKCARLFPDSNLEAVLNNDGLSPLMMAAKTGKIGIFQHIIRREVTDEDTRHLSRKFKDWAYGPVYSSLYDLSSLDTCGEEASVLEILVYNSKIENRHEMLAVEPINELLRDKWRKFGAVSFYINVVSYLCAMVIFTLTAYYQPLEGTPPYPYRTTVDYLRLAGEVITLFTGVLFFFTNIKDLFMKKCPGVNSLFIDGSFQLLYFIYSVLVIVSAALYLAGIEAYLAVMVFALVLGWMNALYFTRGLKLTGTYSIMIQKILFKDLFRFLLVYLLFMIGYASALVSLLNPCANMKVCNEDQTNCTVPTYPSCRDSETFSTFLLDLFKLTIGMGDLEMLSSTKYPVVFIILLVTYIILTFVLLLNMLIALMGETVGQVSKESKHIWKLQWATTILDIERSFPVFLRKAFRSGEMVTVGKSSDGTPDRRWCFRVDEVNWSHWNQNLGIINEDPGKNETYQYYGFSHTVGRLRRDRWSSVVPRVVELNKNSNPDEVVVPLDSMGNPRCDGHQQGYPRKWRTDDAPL
# Description: as §1, with “TRPV4” for “TRPM8”, “the expression of TRPV4.” for “TRPM8 expression.”
# as §2, with “experiment. […]” for “experiment.”
# as §3
# TRPV1 = target: T3, TRPV1 (Homo sapiens, UniProt Q8NER1); assay: Manual patch clamp detection on TRPV1 channel; assay type: cell-based; conditions: HEK293, Capsaicin-induced current
# T3 construct: expressed in transfected cells
# T3 sequence (Q8NER1 whole entry, species assumed): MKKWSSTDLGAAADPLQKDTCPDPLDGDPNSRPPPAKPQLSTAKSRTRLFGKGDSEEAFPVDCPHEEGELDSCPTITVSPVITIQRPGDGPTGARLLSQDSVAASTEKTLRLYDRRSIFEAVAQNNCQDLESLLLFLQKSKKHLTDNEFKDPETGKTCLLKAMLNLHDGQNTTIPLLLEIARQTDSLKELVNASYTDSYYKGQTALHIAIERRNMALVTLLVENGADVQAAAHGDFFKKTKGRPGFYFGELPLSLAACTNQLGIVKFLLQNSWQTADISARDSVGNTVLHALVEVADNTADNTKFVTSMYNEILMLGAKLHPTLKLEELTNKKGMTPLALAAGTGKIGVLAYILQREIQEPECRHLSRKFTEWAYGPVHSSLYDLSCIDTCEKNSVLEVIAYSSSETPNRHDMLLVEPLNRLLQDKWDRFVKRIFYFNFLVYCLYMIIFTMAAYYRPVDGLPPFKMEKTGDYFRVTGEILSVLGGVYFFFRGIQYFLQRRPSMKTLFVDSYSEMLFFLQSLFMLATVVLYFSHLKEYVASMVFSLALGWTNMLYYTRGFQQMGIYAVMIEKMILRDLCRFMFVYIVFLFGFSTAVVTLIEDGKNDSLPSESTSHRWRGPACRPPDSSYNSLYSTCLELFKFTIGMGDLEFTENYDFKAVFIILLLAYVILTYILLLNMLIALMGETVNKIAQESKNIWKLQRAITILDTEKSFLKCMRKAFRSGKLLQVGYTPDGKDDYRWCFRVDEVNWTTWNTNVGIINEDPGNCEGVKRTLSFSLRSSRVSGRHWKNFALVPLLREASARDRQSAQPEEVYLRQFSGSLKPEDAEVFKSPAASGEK
# Description: TRPV1 cells were cultured in a cell culture dish with a diameter of 35 mm, placed in a 37° C., 5% CO2 incubator, and passaged at a ratio of 1:5 every 48 hours. Medium formula: 90% DMEM (Invitrogen), 10% Fetal bovine serum (Gibco). 2 mM L-glutamine, 50 μg/mL Hygromycin B (Invitrogen) and 5 μg/mL Blasticidine HCl (Invitrogen). Before electrophysiological patch clamp experiments, the cell culture medium was replaced with medium containing 1 μg/mL Doxycycline for at least 16 hours to induce the expression of TRPV1.
# as §2, with “experiment. […]” for “experiment.”
# as §3
# ICR mice = assay: acetic acid writhing pain model in mice; assay type: in vivo; conditions: 10 mg/kg intragastric, acetic acid 1 h after administration
# Description: Male ICR mice, weighed 22-25 g, were fasted but allowed to drink water freely for 2 h before administration. All ICR mice were weighed and grouped randomly, and the number of animals in each group was greater than 10. […] […] The drug was administrated intragastrically based on the weight of mice. 1.5% acetic acid solution (0.1 ml/10 g) was injected intraperitoneally 1 hour after administration, and the frequency of visceral pain in each group of mice within 30 min was observed. When concave abdomen, stretched trunk and hind paw, and high buttocks appeared, one number point was recorded. Finally, the number of appearance of the above phenomenon was counted within 30 minutes.
# TRPA1 = target: T4, TRPA1 (Mus musculus, UniProt Q8BLA8); assay: IonWorks Barracuda (IWB) automated patch clamp detection of TRPA1 inhibitory activity; assay type: cell-based; conditions: HEK293 cells stably expressing TRPA1, AITC-induced current
# T4 construct: expressed in transfected cells
# T4 sequence (Q8BLA8 whole entry): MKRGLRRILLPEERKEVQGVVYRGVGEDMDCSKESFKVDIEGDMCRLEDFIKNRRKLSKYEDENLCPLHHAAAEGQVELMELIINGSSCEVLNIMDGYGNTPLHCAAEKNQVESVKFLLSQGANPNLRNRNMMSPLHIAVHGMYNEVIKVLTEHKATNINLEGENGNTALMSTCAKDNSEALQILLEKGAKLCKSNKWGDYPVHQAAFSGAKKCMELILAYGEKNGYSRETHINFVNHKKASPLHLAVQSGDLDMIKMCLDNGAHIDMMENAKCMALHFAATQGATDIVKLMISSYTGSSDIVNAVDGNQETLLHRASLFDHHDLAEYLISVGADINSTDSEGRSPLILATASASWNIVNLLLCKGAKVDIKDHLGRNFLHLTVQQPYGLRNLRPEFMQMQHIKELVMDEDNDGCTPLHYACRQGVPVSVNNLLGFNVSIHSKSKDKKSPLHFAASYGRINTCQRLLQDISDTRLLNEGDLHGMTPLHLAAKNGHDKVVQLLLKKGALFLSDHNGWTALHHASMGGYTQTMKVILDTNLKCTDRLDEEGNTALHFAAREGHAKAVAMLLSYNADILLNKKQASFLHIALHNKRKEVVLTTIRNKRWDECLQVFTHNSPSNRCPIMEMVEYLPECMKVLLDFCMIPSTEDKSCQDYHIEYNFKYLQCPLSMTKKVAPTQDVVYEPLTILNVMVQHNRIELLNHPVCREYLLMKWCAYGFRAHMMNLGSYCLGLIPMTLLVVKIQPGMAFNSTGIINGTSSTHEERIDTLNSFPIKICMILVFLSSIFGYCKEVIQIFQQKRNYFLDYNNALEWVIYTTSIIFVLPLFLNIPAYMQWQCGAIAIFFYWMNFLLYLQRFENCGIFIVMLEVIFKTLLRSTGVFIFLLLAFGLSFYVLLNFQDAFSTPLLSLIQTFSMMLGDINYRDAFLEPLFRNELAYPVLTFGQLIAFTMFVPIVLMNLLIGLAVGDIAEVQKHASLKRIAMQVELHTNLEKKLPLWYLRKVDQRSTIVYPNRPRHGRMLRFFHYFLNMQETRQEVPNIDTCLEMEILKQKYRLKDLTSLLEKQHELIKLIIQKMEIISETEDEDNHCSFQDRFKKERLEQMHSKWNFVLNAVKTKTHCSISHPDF
# Description: IonWorks Barracuda (IWB) automated patch clamp detection was used as test method: HEK293 cells stably expressing TRPA1 were placed in the T175 culture flask with DMEM medium containing 15 μg/mL Blasticidin S HCl, 200 μg/mL Hygromycin B and 10% FBS, and cultured in an incubator in 5% CO2 at 37° C. When the cell density reached about 80%, the culture medium was removed, the residue was rinsed once with phosphate buffered saline (PBS) without calcium and magnesium. 3 mL of Trypsin was added to digest for 2 min, 7 mL of culture medium was added to terminate the digestion. The cells were collected to 15 mL centrifuge tube and centrifuged at 800 rpm for 3 min. After the supernatant was removed, the cells were added to appropriate volume of extracellular fluid for re-suspending, and the cell density was controlled at 2-3×10^6/mL for IWB experiment. The formulation of extracellular fluid (in mM) was 140 NaCl, 5 KCl, 1 MgCl2, 10 HEPES, 0.5 EGTA, 10 Glucose (pH 7.4); the formulation of intracellular fluid (in mM) was 140 CsCl, 10 HEPES, 5 EGTA, 0.1 CaCl2), 1 MgCl2 (pH 7.2). 28 mg/mL of amphotericin B was freshly prepared with DMSO on the day of experiment, and then final concentration of 0.1 mg/mL of that was prepared with intracellular fluid.
# Population patch clamp (PPC) plate was used in IWB experiment. The entire detection process was automatically carried out by the instrument. […]
# The record of data and the export of current amplitude measurement were carried out by IWB software (version 2.5.3, Molecular Devices Corporation. Union City, CA). No statistics was recorded for wells with sealing impedance lower than 20 MΩ. […] TRPA1 current amplitude was measured at ±100 mV. […] The dose-effect curve of compounds and IC50 were fitted and calculated by GraphPad Prism 5.02 (GraphPad Software, San Diego, CA).
# SD rats = assay: SNL model in rats, mechanical hyperalgesia test; assay type: in vivo; conditions: 100 mg/kg by gavage, 1 hour after administration
# Description: Male SPF grade SD rats, weighed 150-180 g, were selected. Aseptic operation during surgery was performed. The animals were anesthetized with sodium pentobarbital (50 mg/kg, intraperitoneal injection). The surgical area of animal waist was shaved and the skin was disinfected three times with iodophor and 70% ethanol. After the skin was dried, the operation was started. Surgical knife was used to make a longitudinal incision at the back of the sacrum of the animal waist to expose the left paraspinal muscles, and distractor was used to separate muscle tissue to expose the spine. The left spinal nerves L5 and L6 were separated and ligated with a 6-0 silk thread, and the wound was sutured. […]
# The animals were weighed to calculate the dosage. […] During the test, rapid paw withdrawal of animal was recorded as pain response. When the test fiber was removed from animal skin, the paw withdrawal of animal was also recorded as pain response. If animal moved or walked, the pain response was not recorded and the test was repeated. […]
# Mechanical hyperalgesia was expressed as paw withdrawal threshold (PWT) in rat behavioral test, which was calculated with the following formula: 50% response threshold (g)=(10^(Xf+k))/10,000; • Xf=the final test fiber value used in the test; • k=table value; • =mean difference
# C57 mice = assay: hot plate pain model in mice; assay type: in vivo; conditions: 10 mg/kg intraperitoneal, hot plate 55° C.
# Description: SPF-grade C57 male mice were placed at hot plate with constant 55±0.1° C. […] If the pain reaction of mice was observed, the mice were taken out immediately to prevent mice from scalding. […] Appropriate amount of test compounds were added into required volume of physiological saline and fully suspended, and the concentration of the drug compound was prepared as 1 mg/ml. The standard volume of administration to mice was 10 ml/kg (or 0.1 ml/10 g). The administration mode was intraperitoneal administration. […] The administration volume was 10 ml/kg. […] Hot plate observation indicator is the time latency of mice on the hot plate at 55±0.1° C. Measurement and recording were conducted at 3 h before administration and 15 min, 30 min, and 60 min after administration. Maximum possible effect (MPE) % was used to evaluate analgesic effect of each compound, i.e., MPE %=[(Post drug latency-baseline latency)/(30-baseline latency)]×100. MPE % at different time points was recorded. The higher the value of MPE % was, the stronger the analgesic effect of the compound was.
# T1 sequence (Q7Z2W7 whole entry, species assumed): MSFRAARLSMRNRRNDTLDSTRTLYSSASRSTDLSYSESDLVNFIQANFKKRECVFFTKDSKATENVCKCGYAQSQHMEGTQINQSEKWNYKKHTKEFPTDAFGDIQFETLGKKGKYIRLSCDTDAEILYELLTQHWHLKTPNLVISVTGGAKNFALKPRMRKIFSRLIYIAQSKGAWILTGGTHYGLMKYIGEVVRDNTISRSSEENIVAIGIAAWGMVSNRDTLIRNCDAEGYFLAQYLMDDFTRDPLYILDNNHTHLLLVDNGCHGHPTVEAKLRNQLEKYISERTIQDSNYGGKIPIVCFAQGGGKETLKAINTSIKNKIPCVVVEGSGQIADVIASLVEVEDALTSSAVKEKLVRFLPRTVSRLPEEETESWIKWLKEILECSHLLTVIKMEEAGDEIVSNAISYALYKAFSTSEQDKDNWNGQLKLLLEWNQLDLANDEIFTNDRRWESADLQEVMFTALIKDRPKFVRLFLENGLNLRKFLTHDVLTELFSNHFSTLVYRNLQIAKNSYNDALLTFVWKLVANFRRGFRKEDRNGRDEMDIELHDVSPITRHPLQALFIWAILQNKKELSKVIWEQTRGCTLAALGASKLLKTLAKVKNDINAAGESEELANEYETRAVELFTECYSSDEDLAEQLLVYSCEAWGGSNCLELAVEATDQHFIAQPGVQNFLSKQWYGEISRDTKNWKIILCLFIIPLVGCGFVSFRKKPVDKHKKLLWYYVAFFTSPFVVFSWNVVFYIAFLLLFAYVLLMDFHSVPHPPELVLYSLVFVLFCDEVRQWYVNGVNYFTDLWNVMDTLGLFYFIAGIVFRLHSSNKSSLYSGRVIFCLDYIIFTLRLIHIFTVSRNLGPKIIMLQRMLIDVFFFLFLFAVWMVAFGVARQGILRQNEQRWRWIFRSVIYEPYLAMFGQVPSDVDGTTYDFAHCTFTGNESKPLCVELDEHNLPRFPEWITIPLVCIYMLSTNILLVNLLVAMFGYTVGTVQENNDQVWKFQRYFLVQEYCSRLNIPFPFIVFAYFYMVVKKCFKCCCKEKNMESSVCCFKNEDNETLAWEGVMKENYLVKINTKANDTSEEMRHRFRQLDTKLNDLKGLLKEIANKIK
structure (smiles),measurement,setting,value
"Cc1cccc(COc2ccccc2C(=O)N(CCCN)Cc2cccs2)c1 [AMTB, reference compound]",Inhibition % of TRPM8 current,TRPM8,over 90%
"N.N.N.N.N.N.N.N.N.N.N.N.N.N.[Cl-].[Cl-].[Cl-].[Cl-].[Cl-].[Cl-].[O-2].[O-2].[Ru+3].[Ru+3].[Ru+4] [RR, Ruthenium Red, reference compound]",Inhibition % of TRPV4 current,TRPV4,over 90%
"Oc1cc2c(cc1O)CN(C(=S)NCCc1ccc(Cl)cc1)CCC2 [Capsazepine, reference compound]",inhibition at 10 µM,TRPV1,> 90%
"CN1[C@H]2C[C@H](OC(=O)[C@H](CO)c3ccccc3)C[C@@H]1[C@@H](O)C2 [anisodamine, reference compound]",frequency of writhing response within 30 min,ICR mice,27 times
CNCC[C@H](Oc1cccc2c1CCC2)c1ccccc1 [Compound C1],IC50,TRPA1,20 to 50 µM
"NCC1(CC(=O)O)CCCCC1 [Gabapentin, reference compound]",PWT,SD rats,6.352 ± 1.897 g
"NCC[C@H](Oc1cccc2ccoc12)c1cccs1 [IC-23, (S)-3-(benzofuran-7-yloxy)-3-(thiophen-2-yl)propan-1-amine]",analgesic activity compared with the positive controls gabapentin and duloxetine,C57 mice,significantly stronger than that of 100 mg/kg of gabapentin
same,analgesic effect (MPE %) compared with the saline control group,C57 mice; within 60 min,very potent analgesic effect
